In ChEMBL document CHEMBL3881525, “Analogs of dehydrophenylahistins and their therapeutic use” (2007):
Values after ≈ are worked out from the molar mass of the structure shown. Active and inactive are the calls of the source. The calls are words filed in the database; no cut-off is given here.

Tests used:
[1] = Cytotoxicity against human PC3 cells assessed as reduction in cell viability measured after 48 hrs by resazurin dye-based fluorometric analysis; format: functional; conditions: PC-3, 48 h
[2] = Cytotoxicity against human HT-29 cells assessed as reduction in cell viability measured after 48 hrs by resazurin dye-based fluorometric analysis relative to control; format: functional
HeLa = assay: Effect on cell cycle progression in human HeLa cells assessed as reduction in 2N cells at 100 nM; format: functional, cell-based
[3] = Cytotoxicity against human MDA-MB-231 cells assessed as reduction in cell viability measured after 48 hrs by resazurin dye-based fluorometric analysis; format: functional; conditions: MDA-MB-231, 48 h
[4] = Antiproliferative activity against human mitoxantrone-sensitive HL60 cells; format: functional, cell-based; conditions: HL-60
Tubulin (Homo sapiens) [5] = biological target: T1, Tubulin (Homo sapiens) (UniProt P68371+Q9H4B7+P0DPH7+P68366+Q13509+Q71U36+P04350+Q3ZCM7+P07437+P68363+Q9BQE3+Q6PEY2+Q13885+Q9BVA1+Q9BUF5); assay: Induction of microtubule depolymerization in HUVEC assessed as cell membrane blebbing at 2 uM measured after 30 mins; format: cell-based
Tubulin (Homo sapiens) [6] = biological target: T1, Tubulin (Homo sapiens); assay: Induction of microtubule depolymerization in human CCD-27Sk cells assessed as cell membrane blebbing at 2 uM measured after 30 mins; format: cell-based
HUVEC [7] = assay: Induction of apoptosis in HUVEC assessed as disruption of nuclei; format: functional, cell-based; conditions: Homo sapiens
Jurkat = assay: Induction of apoptosis in human Jurkat cells assessed as DNA laddering at 1 nM by gel electrophoresis; format: functional, cell-based
[8] = Antifungal activity against Candida glabrata measured after 48 hrs by broth dilution method; format: functional; conditions: Nakaseomyces glabratus
[9] = Antifungal activity against Trichophyton rubrum isolate 1 measured after 48 hrs by broth dilution method; format: functional
[10] = Antifungal activity against Trichophyton mentagrophytes isolate 1 measured after 48 hrs by broth dilution method; format: functional
[11] = tested on: Trichophyton mentagrophytes; assay: Fungicidal activity against Trichophyton mentagrophytes isolate 1 measured after 48 hrs by broth dilution method; format: functional; conditions: isolate 1, 48 h
Mus musculus = assay: Antivascular activity against mouse N202 tumor spheroids expressing H2B-GFP allografted in mouse assessed as inhibition of tumor-induced central vasculature at 10 mg/kg, iv administered on day 12 as infusion for 5 mins measured on day 15 by fluorescence video microscopy; format: functional, organism-based
[12] = Toxicity in mouse allografted with mouse N202 tumor spheroids expressing H2B-GFP at 10 mg/kg, iv administered on day 13 as infusion for 5 mins; format: organism-based; conditions: in vivo
[13] = biological target: Tubulin alpha (Homo sapiens) (UniProt P0DPH7+P68366+Q71U36+P68363+Q9BQE3+Q6PEY2+A6NHL2+Q9NY65); assay: Induction of alpha-tubulin depolymerization in HUVEC at 200 nM measured after 30 mins by DAPI staining based indirect immunofluorescence analysis; format: cell-based
HUVEC [14] = assay: Induction of monolayer permeability in HUVEC measured up to 15 mins; format: functional, cell-based; conditions: Homo sapiens
Rattus norvegicus [15] = assay: Effect on blood flow in rat skin at 15 mg/kg, ip measured after 1 hr by [125I]iodoantipyrine based method relative to vehicle control; format: ADME, organism-based; conditions: in vivo
Rattus norvegicus [16] = assay: Effect on blood flow in rat muscle at 15 mg/kg, ip measured after 1 hr by [125I]iodoantipyrine based method relative to vehicle control; format: ADME, organism-based; conditions: in vivo
Rattus norvegicus [17] = assay: Effect on blood flow in rat brain at 15 mg/kg, ip measured after 1 hr by [125I]iodoantipyrine based method relative to vehicle control; format: ADME, organism-based; conditions: in vivo
Rattus norvegicus [18] = assay: Effect on blood flow in rat kidney at 15 mg/kg, ip measured after 1 hr by [125I]iodoantipyrine based method relative to vehicle control; format: ADME, organism-based; conditions: in vivo
Rattus norvegicus [19] = assay: Effect on blood flow in rat heart at 15 mg/kg, ip measured after 1 hr by [125I]iodoantipyrine based method relative to vehicle control; format: ADME, organism-based; conditions: in vivo
Rattus norvegicus [20] = assay: Effect on blood flow in rat gut at 15 mg/kg, ip measured after 1 hr by [125I]iodoantipyrine based method relative to vehicle control; format: ADME, organism-based; conditions: in vivo
Rattus norvegicus [21] = assay: Reduction in blood flow in rat skin at 15 mg/kg, ip measured after 24 hrs by [125I]iodoantipyrine based method relative to vehicle control; format: ADME, organism-based; conditions: in vivo
Rattus norvegicus [22] = assay: Reduction in blood flow in rat spleen at 15 mg/kg, ip measured after 24 hrs by [125I]iodoantipyrine based method relative to vehicle control; format: ADME, organism-based; conditions: in vivo
Rattus norvegicus [23] = assay: Reduction in blood flow in rat gut at 15 mg/kg, ip measured after 24 hrs by [125I]iodoantipyrine based method relative to vehicle control; format: ADME, organism-based; conditions: in vivo
MCF7 [24] = assay: Antimitotic activity in human MCF7 cells assessed as mitotic index measured after 20 hrs by DAPI-staining based fluorescence microscopic analysis; format: functional, cell-based
MCF7 [25] = assay: Antimitotic activity in human MCF7 cells assessed as decrease in microtubule polymer formation measured after 20 hrs by immunofluorescence analysis relative to control; format: functional, cell-based
Tubulin (Homo sapiens) [26] = biological target: T1, Tubulin (Homo sapiens); assay: Induction of microtubule instability in human MCF7 cells assessed as mean shortening rate at IC25 for mitotic block measured after 20 hrs by immunofluorescence analysis; format: cell-based
Tubulin (Homo sapiens) [27] = biological target: T1, Tubulin (Homo sapiens); assay: Induction of microtubule instability in human MCF7 cells assessed as time spent for growth at IC25 for mitotic block measured after 20 hrs by immunofluorescence analysis; format: cell-based
Tubulin (Homo sapiens) [28] = biological target: T1, Tubulin (Homo sapiens); assay: Induction of microtubule instability in human MCF7 cells assessed as time spent for attenuation at IC25 for mitotic block measured after 20 hrs by immunofluorescence analysis; format: cell-based
Tubulin (Homo sapiens) [29] = biological target: T1, Tubulin (Homo sapiens); assay: Induction of microtubule instability in human MCF7 cells assessed as mean growth rate at IC50 for mitotic block measured after 20 hrs by immunofluorescence analysis; format: cell-based
Tubulin (Homo sapiens) [30] = biological target: T1, Tubulin (Homo sapiens); assay: Induction of microtubule instability in human MCF7 cells assessed as mean shortening rate at IC50 for mitotic block measured after 20 hrs by immunofluorescence analysis; format: cell-based
Tubulin (Homo sapiens) [31] = biological target: T1, Tubulin (Homo sapiens); assay: Induction of microtubule instability in human MCF7 cells assessed as time spent for growth at IC50 for mitotic block measured after 20 hrs by immunofluorescence analysis; format: cell-based
Tubulin (Homo sapiens) [32] = biological target: T1, Tubulin (Homo sapiens); assay: Induction of microtubule instability in human MCF7 cells assessed as time spent for shortening at IC50 for mitotic block measured after 20 hrs by immunofluorescence analysis; format: cell-based
Tubulin (Homo sapiens) [33] = biological target: T1, Tubulin (Homo sapiens); assay: Induction of microtubule instability in human MCF7 cells assessed as time spent for attenuation at IC50 for mitotic block measured after 20 hrs by immunofluorescence analysis; format: cell-based
Tubulin (Homo sapiens) [34] = biological target: T1, Tubulin (Homo sapiens); assay: Time required for induction of microtubule dynamic instability in human MCF7 cells at IC50 for mitotic block measured after 20 hrs by immunofluorescence analysis; format: cell-based
Tubulin (Homo sapiens) [35] = biological target: T1, Tubulin (Homo sapiens); assay: Time required for induction of microtubule dynamic instability in human MCF7 cells at IC25 for mitotic block measured after 20 hrs by immunofluorescence analysis; format: cell-based
[36] = biological target: RAF proto-oncogene serine/threonine-protein kinase (Homo sapiens) (UniProt P04049); conditions: 10 uM
Sequence of RAF proto-oncogene serine/threonine-protein kinase (Homo sapiens) (P04049 whole entry): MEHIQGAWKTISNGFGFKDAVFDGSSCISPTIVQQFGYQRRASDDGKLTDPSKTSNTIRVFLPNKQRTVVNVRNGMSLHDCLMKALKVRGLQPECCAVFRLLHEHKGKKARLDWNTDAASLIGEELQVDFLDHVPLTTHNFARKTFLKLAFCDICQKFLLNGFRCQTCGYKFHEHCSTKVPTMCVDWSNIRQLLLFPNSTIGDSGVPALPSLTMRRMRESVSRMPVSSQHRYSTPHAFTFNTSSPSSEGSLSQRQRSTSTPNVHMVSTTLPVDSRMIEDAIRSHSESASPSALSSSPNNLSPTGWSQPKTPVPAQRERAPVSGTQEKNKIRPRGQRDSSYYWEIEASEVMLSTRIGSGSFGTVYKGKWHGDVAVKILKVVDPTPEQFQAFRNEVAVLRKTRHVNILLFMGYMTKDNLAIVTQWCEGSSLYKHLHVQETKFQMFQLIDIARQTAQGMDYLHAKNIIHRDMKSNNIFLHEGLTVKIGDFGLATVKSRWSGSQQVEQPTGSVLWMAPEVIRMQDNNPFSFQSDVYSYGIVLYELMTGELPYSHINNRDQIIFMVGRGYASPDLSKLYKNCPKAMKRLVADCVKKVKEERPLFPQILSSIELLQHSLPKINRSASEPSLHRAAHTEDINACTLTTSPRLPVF
Description: Inhibition of human c-RAF at 10 uM in presence of ATP

Tubulin (Bos taurus) [37] = biological target: T2, Tubulin (Bos taurus) (UniProt Q6B856+Q862L2+Q862F3); conditions: 1.25 to 5 uM
Tubulin (Bos taurus) [38] = biological target: T2, Tubulin (Bos taurus); conditions: 10 uM
Description: Inhibition of [3H]CLC binding to bovine brain tubulin at 10 uM measured after 120 mins in presence of GTP by scintillation counting method

CC(C)(C)c1[nH]cnc1/C=c1\[nH]c(=O)/c(=C/c2ccccc2)[nH]c1=O [PLINABULIN]
EC50 [1]: 1 to 13.4 nM | inhibition (INH) [2]: 82.5 - 88% | Activity (HeLa): Active | EC50 [3]: 13.8 nM | EC50 [4]: 6.4 nM | Activity (Tubulin (Homo sapiens) [5]): Active | Activity (Tubulin (Homo sapiens) [6]): Active | Activity (HUVEC [7]): Active | Activity (Jurkat): Active | MIC [8]: > 32 µg/mL | MIC [9]: > 16 µg/mL | MIC [10]: 2 µg/mL (≈ 5.95 µM) | MFC [11]: > 16 µg/mL | inhibition (Mus musculus): Active | Activity [12]: Non-Toxic | Activity [13]: Active | Activity (HUVEC [14]): Dose-dependent effect | Activity (Rattus norvegicus [15]): Non-Toxic | Activity (Rattus norvegicus [16]): Non-Toxic | Activity (Rattus norvegicus [17]): Non-Toxic | Activity (Rattus norvegicus [18]): Non-Toxic | Activity (Rattus norvegicus [19]): Non-Toxic | Activity (Rattus norvegicus [20]): Non-Toxic | Activity (Rattus norvegicus [21]): Toxic | Activity (Rattus norvegicus [22]): Toxic | Activity (Rattus norvegicus [23]): Toxic | inhibition (MCF7 [24]): Dose-dependent effect | Activity (MCF7 [25]): Dose-dependent effect | Activity (Tubulin (Homo sapiens) [26]): 31.9 um/min | Activity (Tubulin (Homo sapiens) [27]): 29.7% | TIME (Tubulin (Homo sapiens) [27]): 0.00517 h | Activity (Tubulin (Homo sapiens) [28]): 49.8% | TIME (Tubulin (Homo sapiens) [28]): 0.0122 h | Activity (Tubulin (Homo sapiens) [29]): 10.6 um/min | Activity (Tubulin (Homo sapiens) [30]): 34.1 um/min | Activity (Tubulin (Homo sapiens) [31]): 33% | TIME (Tubulin (Homo sapiens) [31]): 0.005 h | Activity (Tubulin (Homo sapiens) [32]): 20.9% | TIME (Tubulin (Homo sapiens) [32]): 0.00367 h | TIME (Tubulin (Homo sapiens) [33]): 0.0102 h | TIME (Tubulin (Homo sapiens) [34]): 0.552 h | TIME (Tubulin (Homo sapiens) [35]): 0.728 h | inhibition [36]: > 50% | inhibition (Tubulin (Bos taurus) [37]): Active | inhibition (Tubulin (Bos taurus) [38]): Active
